Results reported in patent US20250195521A1 (Revolution Medicines, Inc., priority 2020, published 2025).
Values joined by “and” are separate entries in the source; they are usually repeats but may differ in a detail not shown here. Equal entries are not always repeated. Where two headings read alike, the source gives them in different places.

What was measured:
[1] = test system: Capan-1 cells (K-Ras G12V); experiment: CellTiter-Glo cell viability, Capan-1; format: cell-based, human; conditions: Homo sapiens, CAPAN-1, 120 h, read-out: Capan-1 Cell Viability IC50
Experimental: Note—The following protocol describes a procedure for monitoring cell viability of K-Ras mutant cancer cell lines in response to a compound of the invention. Other RAS isoforms may be employed, though the number of cells to be seeded will vary based on cell line used.
Test compounds (132.5 nl) were directly dispensed into the assay plates containing cells. […] On day 5, assay plates and their contents were equilibrated to room temperature for approximately 30 minutes. […] Luminescence was measured using the PerkinElmer Enspire. Data were normalized by the following: (Sample signal/Avg. DMSO)*100. The data were fit using a four-parameter logistic fit.

KRAS G12S = KRAS G12S (Homo sapiens (Human), UniProt P01116+P62937, G12S); experiment: Ras-Raf disruption/FRET/MOA assay (BRAF RBD, Cyclophilin A); format: biochemical
Chain of KRAS G12S (P01116 other isoform, or with tags, fused parts or gaps G12S): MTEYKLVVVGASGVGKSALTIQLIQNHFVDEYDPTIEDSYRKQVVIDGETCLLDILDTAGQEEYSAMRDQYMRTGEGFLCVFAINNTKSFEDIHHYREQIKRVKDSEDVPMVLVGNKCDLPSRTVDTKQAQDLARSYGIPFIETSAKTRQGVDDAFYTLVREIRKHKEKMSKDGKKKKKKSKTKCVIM
Chain of KRAS G12S (P62937 whole entry): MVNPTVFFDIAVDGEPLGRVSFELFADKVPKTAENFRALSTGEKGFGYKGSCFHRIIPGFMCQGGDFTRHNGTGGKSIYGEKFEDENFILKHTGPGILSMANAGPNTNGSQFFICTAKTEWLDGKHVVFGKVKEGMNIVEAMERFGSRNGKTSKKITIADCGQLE
Experimental: (§1) Compound is present in plate wells as a 10-point 3-fold dilution series starting at a final concentration of 30 μM. After incubation at 25° C. for 3 hours, a mixture of Anti-His Eu—W1024 and anti-GST allophycocyanin is then added to assay sample wells at final concentrations of 10 nM and 50 nM, respectively, and the reaction incubated for an additional 1.5 hours. […] Compounds that facilitate disruption of a Ras: RAF complex are identified as those eliciting a decrease in the TR-FRET ratio relative to DMSO control wells.
(§2) Disruption of B-Raf Ras-Binding Domain (BRAF^RBD) Interaction with K-Ras by Compounds of the Invention (Also Called a FRET Assay or an MOA Assay)
(§3) Note—The following protocol describes a procedure for monitoring disruption of K-Ras G12C (GMP-PNP) binding to BRAF^RBD by a compound of the invention. This protocol may also be executed substituting other Ras proteins or nucleotides.
(§4) The purpose of this biochemical assay was to measure the ability of test compounds to facilitate ternary complex formation between a nucleotide-loaded K-Ras isoform and Cyclophilin A; the resulting ternary complex disrupts binding to a BRAF^RBD construct, inhibiting K-Ras signaling through a RAF effector. Data is reported as IC50 values.
(§5) In assay buffer containing 25 mM HEPES pH 7.3, 0.002% Tween20, 0.1% BSA, 100 mM NaCl and 5 mM MgCl2, tagless Cyclophilin A, His6-K-Ras-GMPPNP, and GST-BRAF^RBD were combined in a 384-well assay plate at final concentrations of 25 μM, 12.5 nM and 50 nM, respectively. Compound was present in plate wells as a 10-point 3-fold dilution series starting at a final concentration of 30 μM. After incubation at 25° C. for 3 hours, a mixture of Anti-His Eu—W1024 and anti-GST allophycocyanin was then added to assay sample wells at final concentrations of 10 nM and 50 nM, respectively, and the reaction incubated for an additional 1.5 hours. […] Compounds that facilitate disruption of a K-Ras: RAF complex were identified as those eliciting a decrease in the TR-FRET ratio relative to DMSO control wells.

KRAS G12V = KRAS G12V (Homo sapiens (Human), UniProt P01116+P62937, G12V); experiment: as above; format: biochemical
Chain of KRAS G12V (P01116 other isoform, or with tags, fused parts or gaps G12V): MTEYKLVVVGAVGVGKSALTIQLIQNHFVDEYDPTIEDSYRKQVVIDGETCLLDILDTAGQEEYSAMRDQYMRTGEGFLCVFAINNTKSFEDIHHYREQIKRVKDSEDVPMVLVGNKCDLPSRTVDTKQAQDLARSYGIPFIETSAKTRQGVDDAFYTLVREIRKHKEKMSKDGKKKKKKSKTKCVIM
Chain of KRAS G12V (P62937 whole entry): as the sequence (P62937 whole entry) above
Experimental: as §1, §2, §3, §4, §5

KRAS G13C = KRAS G13C (Homo sapiens (Human), UniProt P01116+P62937, G13C); experiment: as above; format: biochemical
Chain of KRAS G13C (P01116 other isoform, or with tags, fused parts or gaps G13C): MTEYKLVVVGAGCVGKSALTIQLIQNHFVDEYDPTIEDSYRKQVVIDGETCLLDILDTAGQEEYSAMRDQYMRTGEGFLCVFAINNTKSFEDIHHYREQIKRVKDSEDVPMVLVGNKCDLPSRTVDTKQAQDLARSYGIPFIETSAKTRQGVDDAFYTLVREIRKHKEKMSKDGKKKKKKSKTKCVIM
Chain of KRAS G13C (P62937 whole entry): as the sequence (P62937 whole entry) above
Experimental: as §1, §2, §3, §4, §5

NRAS G12C = NRAS G12C (Homo sapiens (Human), UniProt P01111+P62937, G12C); experiment: as above; format: biochemical
Chain of NRAS G12C (P01111 whole entry G12C): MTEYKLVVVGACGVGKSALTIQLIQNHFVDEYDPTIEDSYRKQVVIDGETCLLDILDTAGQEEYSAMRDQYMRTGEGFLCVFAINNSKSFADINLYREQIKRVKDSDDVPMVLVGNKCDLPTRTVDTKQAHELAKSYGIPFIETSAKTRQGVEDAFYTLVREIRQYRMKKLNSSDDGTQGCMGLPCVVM
Chain of NRAS G12C (P62937 whole entry): as the sequence (P62937 whole entry) above
Experimental: as §1, §2, §3, §4, §5

KRAS G13D = KRAS G13D (Homo sapiens (Human), UniProt P01116+P62937, G13D); experiment: as above; format: biochemical
Chain of KRAS G13D (P01116 other isoform, or with tags, fused parts or gaps G13D): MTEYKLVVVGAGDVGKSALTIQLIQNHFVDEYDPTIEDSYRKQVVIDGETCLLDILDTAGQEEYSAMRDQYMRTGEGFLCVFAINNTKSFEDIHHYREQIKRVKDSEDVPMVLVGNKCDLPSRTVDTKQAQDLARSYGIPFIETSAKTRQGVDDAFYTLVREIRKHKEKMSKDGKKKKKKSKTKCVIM
Chain of KRAS G13D (P62937 whole entry): as the sequence (P62937 whole entry) above
Experimental: as §1, §2, §3, §4, §5

KRAS G12C = KRAS G12C (Homo sapiens (Human), UniProt P01116+P62937, G12C); experiment: as above; format: biochemical
Chain of KRAS G12C (P01116-2 other isoform, or with tags, fused parts or gaps G12C): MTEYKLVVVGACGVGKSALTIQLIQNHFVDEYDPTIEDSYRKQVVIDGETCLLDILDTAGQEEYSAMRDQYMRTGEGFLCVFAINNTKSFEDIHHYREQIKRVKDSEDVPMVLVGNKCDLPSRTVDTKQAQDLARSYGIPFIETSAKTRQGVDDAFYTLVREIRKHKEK
Chain of KRAS G12C (P62937 whole entry): as the sequence (P62937 whole entry) above
Experimental: as §1, §2, §3, §4, §5

KRAS G12D = KRAS G12D (Homo sapiens (Human), UniProt P01116+P62937, G12D); experiment: as above; format: biochemical
Chain of KRAS G12D (P01116 other isoform, or with tags, fused parts or gaps G12D): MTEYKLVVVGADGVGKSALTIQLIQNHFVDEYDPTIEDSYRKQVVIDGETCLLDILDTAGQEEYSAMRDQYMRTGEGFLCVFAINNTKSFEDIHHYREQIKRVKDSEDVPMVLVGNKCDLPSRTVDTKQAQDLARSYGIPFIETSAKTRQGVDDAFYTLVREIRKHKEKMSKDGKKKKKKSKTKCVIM
Chain of KRAS G12D (P62937 whole entry): as the sequence (P62937 whole entry) above
Experimental: as §1, §2, §3, §4, §5

KRAS WT = KRAS WT (Homo sapiens (Human), UniProt P01116+P62937); experiment: as above; format: biochemical
Chain of KRAS WT (P01116 other isoform, or with tags, fused parts or gaps): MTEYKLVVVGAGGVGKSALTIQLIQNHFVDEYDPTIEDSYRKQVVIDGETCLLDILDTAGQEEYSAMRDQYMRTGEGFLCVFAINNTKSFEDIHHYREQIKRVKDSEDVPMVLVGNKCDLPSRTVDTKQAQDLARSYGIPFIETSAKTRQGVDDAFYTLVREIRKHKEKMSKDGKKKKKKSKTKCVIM
Chain of KRAS WT (P62937 whole entry): as the sequence (P62937 whole entry) above
Experimental: as §1, §2, §3, §4, §5

[2] = test system: K-Ras G12C (NCI-H358 cells); experiment: Potency assay: pERK in NCI-H358 cells; format: cell-based, human; conditions: Homo sapiens; NCI-H358 cells, 4 hours; read-out: pERK EC50 (H358 KRAS G12C)
How it was run: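 Cells plated the day before were exposed for 4 h at 37° C, 5% CO2 to a 10-point, 3-fold DMSO dilution series (10 mM top stock), in duplicate. Phospho-ERK was read by AlphaLISA SureFire Ultra or by In-Cell Western with DRAQ5 DNA stain, and IC50 came from a 4-parameter sigmoidal fit.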

[3] = read-out: NRAS G12C FRET data IC50
[4] = read-out: KRAS G13D FRET data IC50
[5] = read-out: KRAS WT FRET data IC50

SMILES	IC50 (KRAS G12S; read-out: KRAS G12S FRET IC50)	IC50 (KRAS G12V; read-out: KRAS G12V FRET IC50)	IC50 (KRAS G13C; read-out: KRAS G13C FRET IC50)	IC50 (NRAS G12C; [3])	IC50 (KRAS G13D; [4])	IC50 (KRAS G12C; read-out: KRAS G12C FRET IC50)	IC50 (KRAS G12D; read-out: KRAS G12D FRET IC50)	IC50 (KRAS WT; [5])	EC50 [2]	IC50 ([1]; K-Ras G12V, 5-day treatment)	IC50 [1]	IC50 (KRAS G12S; KRAS G12S FRET IC50)	IC50 (KRAS G12V; KRAS G12V FRET IC50)	IC50 (KRAS G13C; KRAS G13C FRET IC50)	IC50 (NRAS G12C; NRAS G12C FRET data IC50)	IC50 (KRAS G13D; KRAS G13D FRET data IC50)	IC50 (KRAS G12D; KRAS G12D FRET IC50)	IC50 (KRAS WT; KRAS WT FRET data IC50)	IC50 (KRAS G12C; KRAS G12C FRET IC50)
CCn1c(-c2cnccc2COC)c2c3cc(ccc31)-c1cc(O)cc(c1)C[C@H](NC(=O)[C@H](C(C)C)N(C)C(=O)[C@@H]1CNC[C@@H]1C(F)(F)F)C(=O)N1CCC[C@H](N1)C(=O)OCC(C)(C)C2 [Compound A79]	0.1 to 1 µM	1 to 10 µM	0.1 to 1 µM	0.1 to 1 µM	0.1 to 1 µM	0.1 to 1 µM	0.1 to 1 µM	0.1 to 1 µM		> 10 µM									
CCn1c(-c2cccnc2[C@H](C)OC)c2c3cc(ccc31)-c1cc(O)cc(c1)C[C@H](NC(=O)[C@H](C(C)C)N(C)C(=O)[C@@H]1C[C@@H]1F)C(=O)N1CCC[C@H](N1)C(=O)OCC(C)(C)C2 [Compound A160]	0.1 to 1 µM		0.01 to 0.1 µM	0.01 to 0.1 µM	0.1 to 1 µM	0.01 to 0.1 µM	0.1 to 1 µM	0.01 to 0.1 µM		0.1 to 1 µM									
CCn1c(-c2cccnc2[C@H](C)OC)c2c3cc(ccc31)-c1cc(O)cc(c1)C[C@H](NC(=O)[C@H](C(C)C)N(C)C(=O)[C@H]1C[C@H]1F)C(=O)N1CCC[C@H](N1)C(=O)OCC(C)(C)C2 [Compound A162]	0.01 to 0.1 µM		0.01 to 0.1 µM	0.01 to 0.1 µM	0.01 to 0.1 µM	0.01 to 0.1 µM	0.1 to 1 µM	0.01 to 0.1 µM	< 5 µM										
CCn1c(-c2cccnc2[C@H](C)OC)c2c3cc(ccc31)-c1cc(O)cc(c1)C[C@H](NC(=O)C13CCCC1C3(F)F)C(=O)N1CCC[C@H](N1)C(=O)OCC(C)(C)C2 (some centres unmarked) [Compound A180]	1 to 10 µM	1 to 10 µM	0.1 to 1 µM	1 to 10 µM	1 to 10 µM	1 to 10 µM	> 10 µM	1 to 10 µM		1 to 10 µM									
CCn1c(-c2cccnc2[C@H](C)OC)c2c3cc(ccc31)-c1cc(O)cc(c1)C[C@H](NC(=O)[C@H](C(C)C)N(C)C(=O)OCc1ccccc1)C(=O)N1CCC[C@H](N1)C(=O)OCC(C)(C)C2 [Compound A185]	1 to 10 µM	1 to 10 µM	0.1 to 1 µM	1 to 10 µM	1 to 10 µM	1 to 10 µM	> 10 µM	1 to 10 µM		1 to 10 µM									
CCn1c(-c2cccnc2[C@H](C)OC)c2c3cc(ccc31)-c1cc(O)cc(c1)C[C@H](NS(=O)(=O)c1ccc(O)cc1)C(=O)N1CCC[C@H](N1)C(=O)OCC(C)(C)C2 [Compound A195]	> 10 µM	> 10 µM	> 10 µM	> 10 µM	> 10 µM		> 10 µM	> 10 µM		> 10 µM									
CCn1c(-c2cccnc2[C@H](C)OC)c2c3cc(ccc31)-c1cc(O)cc(c1)C[C@H](NS(=O)(=O)C1CC1)C(=O)N1CCC[C@H](N1)C(=O)OCC(C)(C)C2 [Compound A196]	> 10 µM	> 10 µM	> 10 µM	> 10 µM	> 10 µM		> 10 µM	> 10 µM		> 10 µM									
CCn1c(-c2cccnc2[C@H](C)OC)c2c3cc(ccc31)-c1cc(O)cc(c1)C[C@H](NS(=O)(=O)c1ccc(OC)cc1OC)C(=O)N1CCC[C@H](N1)C(=O)OCC(C)(C)C2 [Compound A198]											> 10 µM	> 10 µM	> 10 µM	> 10 µM	> 10 µM	> 10 µM	> 10 µM	> 10 µM	
CCn1c(-c2cccnc2[C@H](C)OC)c2c3cc(ccc31)-c1cc(O)cc(c1)C[C@H](NC(=O)N1CCOCC1)C(=O)N1CCC[C@H](N1)C(=O)OCC(C)(C)C2 [Compound A199]											> 10 µM	> 10 µM		1 to 10 µM	1 to 10 µM	1 to 10 µM	> 10 µM	1 to 10 µM	1 to 10 µM
CCn1c(-c2cnccc2COC)c2c3cc(ccc31)-c1cc(O)cc(c1)C[C@H](NC(=O)[C@H](C(C)C)N(C)C(=O)N1CCOCC1)C(=O)N1CCC[C@H](N1)C(=O)OCC(C)(C)C2 [Compound A257]	0.1 to 1 µM	0.1 to 1 µM	0.1 to 1 µM	0.1 to 1 µM	0.1 to 1 µM	0.1 to 1 µM	1 to 10 µM	0.1 to 1 µM	< 5 µM										

Second part, led by results:

IC50 (KRAS G12S; read-out: KRAS G12S FRET IC50)	IC50 (KRAS G12V; read-out: KRAS G12V FRET IC50)	IC50 (KRAS G13C; read-out: KRAS G13C FRET IC50)	IC50 (NRAS G12C; [3])	IC50 (KRAS G13D; [4])	IC50 (KRAS G12C; read-out: KRAS G12C FRET IC50)	IC50 (KRAS G12D; read-out: KRAS G12D FRET IC50)	IC50 (KRAS WT; [5])	EC50 [2]	SMILES	IC50 ([1]; K-Ras G12V, 5-day treatment)	IC50 [1]	IC50 (KRAS G12S; KRAS G12S FRET IC50)	IC50 (KRAS G12V; KRAS G12V FRET IC50)	IC50 (KRAS G13C; KRAS G13C FRET IC50)	IC50 (NRAS G12C; NRAS G12C FRET data IC50)	IC50 (KRAS G13D; KRAS G13D FRET data IC50)	IC50 (KRAS G12D; KRAS G12D FRET IC50)	IC50 (KRAS WT; KRAS WT FRET data IC50)	IC50 (KRAS G12C; KRAS G12C FRET IC50)
1 to 10 µM	> 10 µM	1 to 10 µM	1 to 10 µM	1 to 10 µM	1 to 10 µM	1 to 10 µM	1 to 10 µM		CCn1c(-c2cccnc2[C@H](C)OC)c2c3cc(ccc31)-c1csc(n1)C[C@H](NC(=O)[C@H](C(C)C)N(C)C(=O)[C@H]1CCN(CCO)C1)C(=O)N1CCC[C@H](N1)C(=O)OCC(C)(C)C2 [Compound A110]	> 10 µM									
0.01 to 0.1 µM	0.01 to 0.1 µM	0.01 to 0.1 µM	0.01 to 0.1 µM	0.01 to 0.1 µM	0.01 to 0.1 µM	0.01 to 0.1 µM	0.01 to 0.1 µM		CCn1c(-c2cccnc2[C@H](C)OC)c2c3cc(ccc31)-c1cc(O)cc(c1)C[C@H](NC(=O)[C@H](C(C)C)N(C)C(=O)C1CC13CNC3)C(=O)N1CCC[C@H](N1)C(=O)OCC(C)(C)C2 (some centres unmarked) [Compound A140]	> 10 µM									
1 to 10 µM	1 to 10 µM	0.1 to 1 µM	1 to 10 µM	0.1 to 1 µM and 1 to 10 µM	0.1 to 1 µM	1 to 10 µM	0.1 to 1 µM	< 5 µM	CCn1c(-c2cccnc2[C@H](C)OC)c2c3cc(ccc31)-c1cc(O)cc(c1)C[C@H](NC(=O)C(C)Cc1ccncc1)C(=O)N1CCC[C@H](N1)C(=O)OCC(C)(C)C2 (some centres unmarked) [Compound A179]										
> 10 µM	> 10 µM	> 10 µM	1 to 10 µM	> 10 µM	1 to 10 µM	> 10 µM	1 to 10 µM		CCn1c(-c2cccnc2[C@H](C)OC)c2c3cc(ccc31)-c1cccc(c1)C[C@H](NC(=O)[C@H](C(C)C)N(C)C(=O)[C@H]1OCC[C@H]1c1ccccc1)C(=O)N1CCC[C@H](N1)C(=O)OCC(C)(C)C2 [Compound A429]										
